Experimental data reported in patent US11300570B2, “Therapeutic and diagnostic methods for cancer” (Genentech, Inc., priority 2016, dated 2022).

Experiments:
[1] = system: metastatic urothelial carcinoma (mUC); test: IMvigor210 study of atezolizumab in metastatic urothelial carcinoma, efficacy by tTMB; format: in vivo, human
Method: To evaluate this idea, the association between tTMB and response to atezolizumab was evaluated in several distinct cancer types. As described in Example 2, high tTMB was associated with response to atezolizumab in 1 L and 2 L+ NSCLC, including at tTMB cutoffs of ≥16 mut/Mb and ≥20 mut/Mb. […] Tissue TMB was associated with improved ORR in 1 L and 2 L mUC patients at the ≥16 mut/Mb and ≥20 mut/Mb cutoffs in the IMvigor210 study (FIG. 17).

[2] = system: locally advanced or metastatic NSCLC (PD-L1-unselected patients); test: POPLAR Phase II randomized trial, atezolizumab vs docetaxel, in 2L+ PD-L1-unselected NSCLC, efficacy by tTMB; format: in vivo, human; conditions: POPLAR; for OS HR (95% CI) / PFS HR (95% CI): atezolizumab vs docetaxel
Text: Patients were eligible for enrollment in the POPLAR study if they had locally advanced or metastatic (e.g., stage IIIB, stage IV, or recurrent) NSCLC; disease progression during or following treatment with a prior platinum-containing regimen for locally advanced, unresectable/inoperable, or metastatic NSCLC, or disease recurrence within 6 months of treatment with a platinum-based adjuvant/neoadjuvant regimen; measurable disease, as defined by RECIST v1.1; and an ECOG performance status of 0 or 1. Participants were randomized to receive either atezolizumab at a dose of 1200 mg intravenously every three weeks or docetaxel 75 mg per meter square (mg/m^2) intravenously every three weeks. Treatment with atezolizumab could be continued as long as participants were experiencing clinical benefit, i.e., in the absence of unacceptable toxicity or symptomatic deterioration attributed to disease progression. Pre-treatment tumor samples from patients in the Phase III OAK trial (Clinical Trial ID No.: NCT02008227) were also evaluated for tTMB. Patients were eligible for enrollment in the OAK study if they had locally advanced or metastatic (e.g., stage IIIB, stage IV, or recurrent) NSCLC; disease progression during or following treatment with a prior platinum-containing regimen for locally advanced, unresectable/inoperable, or metastatic NSCLC, or disease recurrence within 6 months of treatment with a platinum-based adjuvant/neoadjuvant regimen; measurable disease, as defined by RECIST v1.1; and an ECOG performance status of 0 or 1. Participants were randomized to receive either atezolizumab at a dose of 1200 mg intravenously every three weeks or docetaxel 75 mg per square meter (mg/m^2) intravenously every three weeks. Treatment with atezolizumab could be continued as long as participants were experiencing clinical benefit, i.e., in the absence of unacceptable toxicity or symptomatic deterioration attributed to disease progression.
Data from the single-arm, PD-L1-selected trials BIRCH and FIR were combined and analyzed to examine the association between tTMB and clinical outcomes among PD-L1-selected patients. Data from the randomized, PD-L1-unselected trial, POPLAR, were analyzed separately and treatment effects between the atezolizumab- and docetaxel-treatment arms were compared.
To identify somatic mutations, tumor samples (e.g., archival tumor samples) were processed as described in Frampton et al. Nat. Biotechnol. 31:1023-31, 2013. Sequencing libraries were constructed to sequence and analyze samples. In addition to standard mutation processing, a mutation load estimation algorithm was applied that, based on the number of somatic mutations and/or rearrangements detected in Table 1 or Table 2, respectively, extrapolates to the exome or the genome as a whole. For purposes of mutation load estimation, all coding short variant alterations, base substitutions, and indels detected in the genes listed in Table 1 and Table 2 were counted. Further, all coding alterations (base substitutions and indels), including synonymous alterations, with the exception of known oncogenic driver mutations, in the genes listed in Table 1 and Table 2 were counted. However, numerous classes of detected alterations were not counted: non-coding alterations; alterations with known (occurring as known somatic alterations in the COSMIC database (Forbes et al. (2014) Nucl. Acids Res. 43:D805-11) and likely (truncations in tumor suppressor genes) functional status; known germline alterations in the dbSNP database (Sherry et al. (2001) Nucleic Acids Res. 29(1):308-11); germline alterations occurring with two or more counts in the ExAC database (Exome Aggregation Consortium (ExAC), Cambridge, Mass.); alterations that are predicted to be germline in the specimen being assessed; and alterations that are predicted to be germline in a cohort of >60,000 clinical specimens. […]

[3] = tTMB quantile ≥25%, unadjusted, unstratified
[4] = tTMB quantile ≥50% (median), unadjusted, unstratified
[5] = tTMB quantile ≥75%, unadjusted, unstratified

atezolizumab was tested, and the “association of increased tTMB with ORR, PFS and OS” value ([1]; 1L cisplatin-ineligible mUC, cohort 1 of IMvigor210) was “associated with increased ORR (FIG. 15A), longer PFS (FIG. 15B), and longer OS (FIG. 15C)”, the “association of increased tTMB with ORR, PFS and OS” value ([1]; 2L+ mUC, cohort 2 of IMvigor210) was “associated with increased ORR (FIG. 16A), longer PFS (FIG. 16B), and longer OS (FIG. 16C)” and the ORR ([1]; IMvigor210 1L cisplatin-ineligible and 2L+ mUC, 6 patients both TMB-high (≥16 mut/Mb) and MSI-high) was 83%. For the same substance, the “association of tTMB with efficacy of atezolizumab compared to docetaxel” value ([2]; PD-L1-unselected 2L+ patients with NSCLC) was “trend towards an association of tTMB with improved efficacy”, the “clinical benefit in patients with low or no PD-L1 expression on TC and IC” value ([2]; long-term follow-up (FIG. 1)) was “can also derive clinical benefit” and the “ORR (confirmed per RECIST v1.1) with increasing tTMB” value ([2]; per treatment arm) was “higher ORR (confirmed per RECIST v1.1) was associated with increased tTMB”. For the same substance, the ORR ([2]; BEP (n = 54 atezolizumab vs 38 docetaxel)) was 13%, the ORR ([2]; ITT (n = 144 atezolizumab vs 143 docetaxel)) was 15% vs 15% and the “OS HR (95% CI)” value ([2]; BEP (n = 54 vs 38)) was 0.65 (0.38, 1.12). The “PFS HR (95% CI)” value ([2]; BEP (n = 54 vs 38), unadjusted, unstratified) was 0.98 (0.63, 1.53), the “OS HR (95% CI)” value ([2]; ITT (n = 144 vs 143)) was 0.69 (0.49, 0.98) and the “PFS HR (95% CI)” value ([2]; ITT (n = 144 vs 143), unadjusted, unstratified) was 0.92 (0.71, 1.20). The “OS HR (95% CI)” value [2, 3] was 0.55 (0.29, 1.03), the “PFS HR (95% CI)” value [2, 3] was 0.88 (0.52, 1.48) and the “OS HR (95% CI)” value [2, 4] was 0.48 (0.23, 1.04). The “PFS HR (95% CI)” value [2, 4] was 0.49 (0.25, 0.93), the “OS HR (95% CI)” value [2, 5] was 0.50 (0.15, 1.67) and the “PFS HR (95% CI)” value [2, 5] was 0.49 (0.19, 1.30). The ORR ([2]; tTMB quantile ≥25%) was 14%, the ORR ([2]; tTMB quantile ≥50% (median)) was 20% and the ORR ([2]; tTMB quantile ≥75%) was 20%.
